Where two headings read alike, the source gives them in different places.
How the values were obtained:
[1] = set-up: method as in vendor (SPECS); conditions: reported by the vendor ref vendor (SPECS); cited from earlier work
[2] = Solubility observed in experimental testing
[3] = target: T1, human RORγ hybrids of both isoforms 1 and 2 (RORγt) (Homo sapiens, UniProt P51449); assay: Human RAR-related Orphan Receptor Gamma Reporter Assay System (Indigo Biosciences); assay type: cell-based
T1 sequence (P51449 259-518): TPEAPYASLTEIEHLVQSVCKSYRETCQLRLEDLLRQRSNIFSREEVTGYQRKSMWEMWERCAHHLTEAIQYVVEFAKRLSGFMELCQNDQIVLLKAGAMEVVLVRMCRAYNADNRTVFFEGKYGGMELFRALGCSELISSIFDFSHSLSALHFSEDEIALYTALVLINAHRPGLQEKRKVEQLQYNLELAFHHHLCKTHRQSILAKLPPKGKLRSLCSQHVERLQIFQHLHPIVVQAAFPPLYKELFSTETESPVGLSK
Description: The activity of the 28 selected molecules was determined at 5 μM concentration using the Human RAR-related Orphan Receptor Gamma Reporter Assay System in a 96-well format (Indigo Biosciences, State College, PA, USA). The assay utilizes human reporter cells designed to express high levels of human RORγ hybrids of both isoforms 1 and 2 and is capable of quantifying inverse agonism and agonism. […] Concentrations of the tested molecules varied from 10 µM to 8 nM, using 1/3-fold decrements within the range of 6 µM to 8 nM. Otherwise, the kit protocol was followed, and the analysis was done similarly as in a prior study.

[4] = RORγ reporter assay, concentrations 10 µM to 8 nM, read-out: IC50

| Compound | IC50 [3, 4] [nM] | other results |
| --- | --- | --- |
| COc1cc(C(=O)N2CCN(CCN3C(=O)c4cccc5cccc(c45)C3=O)CC2)cc(OC)c1OC [Compound 2] |  | logP [1]: 1.69; solubility [2]: non-soluble |
| Clc1ccccc1COc1cccc(/C=N/Nc2nc(N3CCOCC3)nc(N3CCOCC3)n2)c1 [Compound 9] | 1700 |  |
| COc1ccc(-c2cc(C(F)(F)F)n3ncc(C(=O)N4CCN(C(c5ccccc5)c5ccccc5)CC4)c3n2)cc1 [Compound 10] | 9700 |  |
| COc1cc(C2C(C(=O)OC3CCCCC3)=C(C)NC3=C2C(=O)CC(c2ccc(OC)c(OC)c2)C3)ccc1O (stereo not shown) [Compound 13] | 2600 |  |
| COc1ccc(C2CC(=O)C3=C(C2)NC(C)=C(C(=O)OC2CCCCC2)C3c2cccc(O)c2)cc1OC (stereo not shown) [Compound 14] | 2300 |  |
| O=C(O)c1ccc(CN2C(=O)/C(=C/c3cn(Cc4ccc([N+](=O)[O-])cc4)c4ccccc34)S/C2=N/c2ccccc2)cc1 [Compound 15] | 7300 |  |
| O=C(COC(=O)c1ccc(N2C(=O)C3C4c5ccccc5C(c5ccccc54)C3C2=O)cc1)c1cccc([N+](=O)[O-])c1 (stereo not shown) [Compound 17] |  | logP [1]: 2.93; solubility [2]: non-soluble |
| COc1ccc(-c2nc3ccccc3c(C(=O)Nc3ccc(S(=O)(=O)Nc4cc(C)on4)cc3)c2C)cc1 [Compound 19] | 1100 |  |
| COc1ccc(Cn2c(-c3ccc(S(=O)(=O)N4CCOCC4)cc3)cs/c2=N\c2ccccc2OC)cc1 [Compound 21] | 10700 |  |
| COc1cc(C2C(C#N)=C(N)N(Nc3ccccc3)C3=C2C(=O)CC(C)(C)C3)ccc1OCc1cccc(F)c1 (stereo not shown) [Compound 25] |  | IC50 [3]: 2400 nM |
| COc1cc(C2C(C#N)=C(N)N(Nc3ccccc3)C3=C2C(=O)CC(C)(C)C3)ccc1OCc1ccccc1 (stereo not shown) [Compound 26] |  | IC50 [3]: 3200 nM |

Source: paper PMC10145393, “Virtual Screening Strategy to Identify Retinoic Acid-Related Orphan Receptor γt Modulators” (Molecules, 2023)
